Assay results taken from patent US20160067247A1, “NOVEL USE” (GlaxoSmithKline Intellectual Property (No.2) Limited, priority 2012, published 2016).
Where two headings read alike, the source gives them in different places.

What was measured:
AKT phosphorylation = AKT phosphorylation in cells (macrophages) isolated from IPF BALF, MSD assay (Example 1); format: cell-based; details: Homo sapiens, Macrophage, 25 min; macrophages isolated from n=3 IPF BALFs; 25 minutes incubation; geometric mean (95% CI 0.28-1.08 nM); read-out: IC50 for inhibition of AKT phosphorylation
Source text: Phosphorylation of AKT is widely accepted as an indication of PI3-kinase activity, and is utilised here to obtain an IC50 for the effect of 2,4-difluoro-N-{2-(methyloxy)-5-[4-(4-pyridazinyl)-6-quinolinyl]-3-pyridinyl}benzenesulfonamide on primary human lung fibroblasts isolated from the IPF patients, in addition to macrophages isolated from IPF bronchoalveolar lavage (BALF).
In similar experiments, inhibition of AKT phosphorylation by 2,4-difluoro-N-{2-(methyloxy)-5-[4-(4-pyridazinyl)-6-quinolinyl]-3 pyridinyl}benzenesulfonamide is assessed in cells isolated from IPF BALF. Briefly, BAL cells are resuspended in 0.1% BSA RPMI media to a cell provide a cell count of 5.7×10^4-8.3×10^4 cells per well. BAL cells are added to a 96 well plate and incubated with a range of 2,4-difluoro-N-{2-(methyloxy)-5-[4-(4-pyridazinyl)-6-quinolinyl]-3 pyridinyl}benzenesulfonamide (0.1% DMSO and 0.1% BSA final concentration in the assay). After 25 minutes incubation at 37° C., 5% CO2 the plate is spun for 5 min at 1600 rpm. The supernatants are decanted and 40 μl of phosphosafe lysis buffer containing protease inhibitors is added to each well. The plate is then snap frozen in liquid nitrogen and stored at −80° C. prior to further analysis. Following thawing on ice, cell lysates are transferred onto phospho Akt, total Akt Meso Scale Discovery (MSD) capture plates and processed as described above.

[1] = tested on: primary human lung fibroblasts; assay: 72 hour cell population growth, MTS assay (CellTiter 96 AQueous); format: cell-based; details: for IC50: Homo sapiens, Fibroblast, 72 h, 10% FBS, read-out: mean pIC50, inhibition of cell growth (MTS) (converted)
Description: Primary human fibroblasts were isolated by explant culture from non-IPF lung tissue, obtained post mortem following sudden trauma, and IPF lung tissue obtained from the lungs of IPF patients which were removed for transplantation or biopsy. Explants were cultured in DMEM containing high glucose and sodium pyruvate (PAA laboratories, catalogue #E15-011) with penicillin/streptomycin (Sigma #P4333), amphotericin B (Sigma #A2942), L-glutamine (Gibco #25030) and 20% FBS (foetal bovine serum, Lonza, catalogue #14-801F, Lot #1SB003) at 37° C., 100% humidity, 10% CO2. Cells were designated non-IPF (UCL marked 0110 and 0610) and IPF (UCL marked 0207, 0208, 0308, 0507 and 0508) based on medical diagnosis.
Human lung primary fibroblast cell lines were cultured in DMEM containing high glucose and sodium pyruvate supplemented with L-glutamine, penicillin/streptomycin and 10% FBS (complete DMEM) at 37° C., 100% humidity, 10% CO2. Cells were split into T175 flasks (NUNC #159910) 2 to 3 days prior to assay set-up at a density which yields approximately 70-80% confluence at time of harvest for assay. […]
For reading 20 μL of CellTiter 96™ AQueous non-radioactive cell growth assay (MTS) reagent (Promega #G5430) was added to all wells. Plates were incubated for a further 2 hours at 37° C., 100% humidity, 10% CO2 then read at 490 nm on a Versamax microplate reader using Softmax Pro v5 software. Readings were corrected for FBS discoloration as per manufacturer's instructions, by the subtraction of values from media control (no cell) wells.
The maximum fitted (upper asymptote) value for each experiment and used as the 100% reference response. The MTS signal (with media background values subtracted) in the presence of increasing log Molar concentrations of 2,4-difluoro-N-{2-(methyloxy)-5-[4-(4-pyridazinyl)-6-quinolinyl]-3-pyridinyl}benzenesulfonamide were expressed as a % of the maximum asymptote. […]
In a subset of experiments, where cell growth was measured in parallel with activation of caspase 3/7, T0 readings were taken when serum free medium was changed to 10% FBS and compound added. […]

## COc1ncc(-c2ccc3nccc(-c4ccnnc4)c3c2)cc1NS(=O)(=O)c1ccc(F)cc1F [2,4-difluoro-N-{2-(methyloxy)-5-[4-(4-pyridazinyl)-6-quinolinyl]-3-pyridinyl}benzenesulfonamide]
AKT phosphorylation
  IC50: 0.54 nM
[1]; IPF fibroblasts, n=5 cell lines (+/-0.1 SEM)
  IC50: 31.6 nM
[1]; primary human non-IPF fibroblasts, n=2 lines (±0.2 SEM)
  IC50: 20 nM
[1]; fibroblasts
  concentration at which MTS signal with 10% FBS appeared lower than no FBS controls (reduction in cell number, potentially indicative of cell death): > 30 nM
